Experimental data from patent US8884030B2, “Inhibitors of Flaviviridae viruses” (priority 2010, dated 2014).

System: human hepatoma Huh-7 cell line harboring a HCV replicon
Test: HCV replicon assay (inhibition of viral replication, luciferase)
Type: cell-based
Settings: Hepatitis C virus, 72 h; 2 μM; Huh-7 HCV replicon cells, 3 days incubation; inhibition of viral replication; read-out: % inhibition at 2 μM
Procedure: The anti-HCV activity of the compounds of this invention was tested in a human hepatoma Huh-7 cell line harboring a HCV replicon. The assay comprised the following steps:
Step 1: Compound Preparation and Serial Dilution.
Serial dilution was performed in 100% DMSO in a 384-well plate. A solution containing a compound at 225-fold concentration of the starting final serial dilution concentration was prepared in 100% DMSO and 15 uL added to the pre-specified wells in column 3 or 13 of a polypropylene 384-well plate. The rest of the 384-well plate was filled with 10 uL 100% DMSO except for columns 23 and 24, where 10 uL of 500 uM a HCV protease inhibitor (ITMN-191) in 100% DMSO was added. The HCV protease inhibitor was used a control of 100% inhibition of HCV replication. The plate was then placed on a Biomek FX Workstation to start the serial dilution. The serial dilution was performed for ten cycles of 3-fold dilution from column 3 to 12 or from column 13 to 22.
Step 2: Cell Culture Plate Preparation and Compound Addition
To each well of a black polypropylene 384-well plate, 90 μL of cell media containing 1600 suspended Huh-7 HCV replicon cells was added with a Biotek uFlow Workstation. A volume of 0.4 μL of the compound solution was transferred from the serial dilution plate to the cell culture plate on a Biomek FX Workstation. The DMSO concentration in the final assay condition was 0.44%. The plates were incubated for 3 days at 37° C. with 5% CO2 and 85% humidity.
Step 3: Detection of Cytotoxicity and Inhibition of Viral Replication
a) Assessment of cytotoxicity: The media in the 384-well cell culture plate was aspirated with a Biotek EL405 plate-washer. A volume of 50 μL of a solution containing 400 nM Calcein AM in 100% PBS was added to each well of the plate with a Biotek uFlow Workstation. The plate was incubated for 30 minutes at room temperature before the fluorescence signal ([…]) was measured with a Perkin Elmer Envision Plate Reader.
b) Assessment of inhibition of viral replication: The calcein-PBS solution in the 384-well cell culture plate was aspirated with a Biotek EL405 plate-washer. A volume of 20 μL of Dual-Glo luciferase buffer (Promega, Dual-Glo Luciferase Assay Reagent, cat. #E298B) was added to each well of the plate with a Biotek uFlow Workstation. The plate was incubated for 10 minutes at room temperature. A volume of 20 μL of a solution containing 1:100 mixture of Dual-Glo Stop & Glo substrate(Promega, Dual-Glo Luciferase Assay Reagent, cat. #E313B) and Dual-Glo Stop & Glo buffer (Promega, Dual-Glo Luciferase Assay Reagent, cat. #E314B) was then added to each well of the plate with a Biotek uFlow Workstation. The plate was incubated at room temperature for 10 minutes before the luminescence signal was measured with a Perkin Elmer Envision Plate Reader.
The percent cytotoxicity was determined by calcein AM conversion to fluorescent product. The average fluorescent signal from the DMSO control wells were defined as 100% nontoxic. The individual fluorescent signal from testing compound treated well was divided by the average signal from DMSO control wells and then multiplied by 100% to get the percent viability. The percent anti-HCV replication activity was determined by the luminescence signal from the testing well compared to DMSO controls wells. The background signal was determined by the average luminescence signal from the HCV protease inhibitor treated wells and was subtracted from the signal from the testing wells as well as the DMSO control wells. Following 3-fold serial dilutions, the EC50 and CC50 values were calculated by fitting % inhibition at each concentration to the following equation: % inhibition=100%[(EC50/[l])^b+1]
Where b is Hill's coefficient. See, for reference, Hill, A. V., The Possible Effects of the Aggregation of the Molecules of Hæmoglobin on its Dissociation Curves, J. Physiol. 40: iv-vii. (1910). […]

| SMILES | inhibition at 2 µM [%] |
| --- | --- |
| CC(C)(C)C#Cc1cc(N(C(=O)[C@H]2CC[C@H](C)CC2)[C@H]2CCN(C(=O)OC3(C)CCN(C(=O)OC(C)(C)C)C3)C2)c(C(=O)O)s1 (stereo in doubt) [Compound 67, 3-(S)-{3-[[2-Carboxy-5-(3,3-dimethyl-but-1-ynyl)-thiophene-3-yl](trans-4-methyl-cyclohexanecarbonyl)-amino]-pyrrolidine-1-carbonyloxy}-3-methyl-pyrrolidine-1-carboxylic acid tert-butyl ester] | 99 |
| CC(C)(C)C#Cc1cc(N(C(=O)[C@H]2CC[C@H](C)CC2)C2CCN(C(=O)OC3CCNCC3)CC2)c(C(=O)O)s1 [Compound 31, 4-[[2-carboxy-5-(3,3-dimethyl-but-1-ynyl)-thiophen-3-yl]-(4-trans-methyl-cyclohexanecarbonyl)-amino]-piperidine-1-carboxylic acid piperidin-4-yl ester] | 93.1 |
| CC(C)(C)C#Cc1cc(N(C(=O)[C@H]2CC[C@H](C)CC2)C2CCC(NC(=O)OC3CCOCC3)CC2)c(C(=O)O)s1 (stereo partly drawn) [Compound 32, 5-(3,3-dimethyl-but-1-ynyl)-3-{(4-trans-methyl-cyclohexanecarbonyl)-[4-(tetrahydro-pyran-4-yloxycarbonylamino)-cyclohexyl]-amino}-thiophene-2-carboxylic acid] | 100 |
| CC(C)(C)C#Cc1cc(N(C(=O)[C@H]2CC[C@H](C)CC2)[C@H]2CCN(C(=O)O[C@@H]3CNC(=O)C3)C2)c(C(=O)O)s1 [Compound 33, 3-(S)-[[2-carboxy-5-(3,3-dimethyl-but-1-ynyl)-thiophen-3-yl]-(4-trans-methyl-cyclohexanecarbonyl)-amino]-pyrrolidine-1-carboxylic acid 5-oxo-pyrrolidin-3-(S)-yl ester] | 96.2 |
| CC(C)(C)C#Cc1cc(N(C(=O)[C@H]2CC[C@H](C)CC2)[C@H]2CCN(C(=O)O[C@H]3CNC(=O)C3)C2)c(C(=O)O)s1 [Compound 34, 3-(S)-[[2-carboxy-5-(3,3-dimethyl-but-1-ynyl)-thiophen-3-yl]-(4-trans-methyl-cyclohexanecarbonyl)-amino]-pyrrolidine-1-carboxylic acid 5-oxo-pyrrolidin-3-(R)-yl ester] | 97.8 |
| CC(C)(C)C#Cc1cc(N(C(=O)[C@H]2CC[C@H](C)CC2)[C@H]2CCN(C(=O)O[C@H]3CO[C@H]4OCC[C@H]43)C2)c(C(=O)O)s1 [Compound 35, 3-(S)-[[2-Carboxy-5-(3,3-dimethyl-but-1-ynyl)-thiophen-3-yl]-(4-methyl-cyclohexanecarbonyl)-amino]-pyrrolidine-1-carboxylic acid hexahydro-furo[2,3-b]furan-3-(R)-yl ester] | 99.8 |
| CC(C)(C)C#Cc1cc(N(C(=O)[C@H]2CC[C@H](C)CC2)C2CCN(C(=O)O[C@H]3CO[C@H]4OCC[C@H]43)CC2)c(C(=O)O)s1 [Compound 36, 4-[[2-carboxy-5-(3,3-dimethyl-but-1-ynyl)-thiophen-3-yl]-(4-methyl-cyclohexanecarbonyl)-amino]-piperidine-1-carboxylic acid hexahydro-furo[2,3-b]furan-3-(R)-yl ester] | 100 |
| CC(C)(C)C#Cc1cc(N(C(=O)[C@H]2CC[C@H](C)CC2)[C@H]2CCN(C(=O)O[C@@H]3CCCN(C(=O)OC(C)(C)C)C3)C2)c(C(=O)O)s1 [Compound 37, 3-(R)-{3-(S)-[[2-carboxy-5-(3,3-dimethyl-but-1-ynyl)-thiophen-3-yl]-(4-trans-methyl-cyclohexanecarbonyl)-amino]-pyrrolidine-1-carbonyloxy}-piperidine-1-carboxylic acid tert-butyl ester] | 99.6 |
| CC(C)(C)C#Cc1cc(N(C(=O)[C@H]2CC[C@H](C)CC2)[C@H]2CCN(C(=O)O[C@@H]3CCCNC3)C2)c(C(=O)O)s1 [Compound 38, 3-(S)-[[2-carboxy-5-(3,3-dimethyl-but-1-ynyl)-thiophen-3-yl]-(4-trans-methyl-cyclohexanecarbonyl)-amino]-pyrrolidine-1-carboxylic acid piperidin-3-(R)-yl ester] | 99.6 |
| CC(C)(C)C#Cc1cc(N(C(=O)[C@H]2CC[C@H](C)CC2)[C@H]2CCN(C(=O)OC3CCN(C(=O)OC(C)(C)C)CC3)C2)c(C(=O)O)s1 [Compound 39, 4-{3-(S)-[[2-carboxy-5-(3,3-dimethyl-but-1-ynyl)-thiophen-3-yl]-(4-trans-methyl-cyclohexanecarbonyl)-amino]-pyrrolidine-1-carbonyloxy}-piperidine-1-carboxylic acid tert-butyl ester] | 98.8 |
| CC(C)(C)C#Cc1cc(N(C(=O)[C@H]2CC[C@H](C)CC2)[C@H]2CCN(C(=O)OC3CCNCC3)C2)c(C(=O)O)s1 [Compound 40, 3-(S)-[[2-carboxy-5-(3,3-dimethyl-but-1-ynyl)-thiophen-3-yl]-(4-trans-methyl-cyclohexanecarbonyl)-amino]-pyrrolidine-1-carboxylic acid piperidin-4-yl ester] | 98.6 |
| CC(C)(C)C#Cc1cc(N(C(=O)[C@H]2CC[C@H](C)CC2)[C@H]2CCN(C(=O)OC3CCOCC3)C2)c(C(=O)O)s1 [Compound 41, 3-(S)-[[2-carboxy-5-(3,3-dimethyl-but-1-ynyl)-thiophen-3-yl]-(4-trans-methyl-cyclohexanecarbonyl)-amino]-pyrrolidine-1-carboxylic acid tetrahydro-pyran-4-yl ester] | 99.9 |
| CC(C)(C)C#Cc1cc(N(C(=O)[C@H]2CC[C@H](C)CC2)[C@H]2CCN(C(=O)O[C@@H]3CCOC3)C2)c(C(=O)O)s1 [Compound 42, 3-(S)-[[2-carboxy-5-(3,3-dimethyl-but-1-ynyl)-thiophen-3-yl]-(4-trans-methyl-cyclohexanecarbonyl)-amino]-pyrrolidine-1-carboxylic acid tetrahydro-furan-3-(R)-yl ester] | 99.9 |
| CC(C)(C)C#Cc1cc(N(C(=O)[C@H]2CC[C@H](C)CC2)[C@H]2CCN(C(=O)O[C@H]3CCNC3=O)C2)c(C(=O)O)s1 [Compound 43, 3-(S)-[[2-carboxy-5-(3,3-dimethyl-but-1-ynyl)-thiophen-3-yl]-(4-trans-methyl-cyclohexanecarbonyl)-amino]-pyrrolidine-1-carboxylic acid 2-oxo-pyrrolidin-3-(R)-yl ester] | 96.2 |
| CC(C)(C)C#Cc1cc(N(C(=O)[C@H]2CC[C@H](C)CC2)C2CCC(NC(=O)OC3CCN(C(=O)OC(C)(C)C)CC3)CC2)c(C(=O)O)s1 (stereo partly drawn) [Compound 44, 4-{4-[[2-carboxy-5-(3,3-dimethyl-but-1-ynyl)-thiophen-3-yl]-(4-trans-methyl-cyclohexanecarbonyl)-amino]-cyclohexylcarbamoyloxy}-piperidine-1-carboxylic acid tert-butyl ester] | 100 |
| CC(C)(C)C#Cc1cc(N(C(=O)[C@H]2CC[C@H](C)CC2)C2CCC(NC(=O)OC3CCNCC3)CC2)c(C(=O)O)s1 (stereo partly drawn) [Compound 45, 5-(3,3-dimethyl-but-1-ynyl)-3-{(4-trans-methyl-cyclohexanecarbonyl)-[4-(piperidin-4-yloxycarbonylamino)-cyclohexyl]-amino}-thiophene-2-carboxylic acid] | 100 |
